Data as given in patent US11291719B2, “Methods and compositions for modulating Akt3” (Augusta University Research Institute, Inc., priority 2016, dated 2022).

How the values were obtained:
TC-1 tumor = TC-1 tumor growth and survival, alone or with vaccine; format: in vivo, mouse; conditions: high dose as monotherapy, lower dose combined with vaccine
Procedure: (§1) C57BL/6 mice (n=5/group) were injected s.c. in the right flank with 7×10^4 TC-1 cells. Mice from appropriate groups were injected weekly with vaccine (s.c.) or DMSO 5% as a control. Mice were also treated with vaccine (weekly) along with either 10 mg/kg or 20 mg/kg of JJ64-E injected (i.p.) every day starting on day 6 after tumor implantation throughout the experiment.
FIGS. 5B and 5C are bar diagrams showing average tumor volumes of mice for each group. FIG. 5D is a Kaplan-Meier plot of the overall survival. Statistical significance was determined by Log-rank (Mantel-Cox) test.
(§2) Statistical significance was determined by one-way ANOVA with Tukey's multiple comparison test (*, p<0.05; **, p<0.01; ***, p<0.001).
as §1, with “JJ64-C(or FIG. 7A or Formula 18)” for “JJ64-E”, “every other” for “every”
FIGS. 7C and 7D are bar diagrams representing average tumor volumes of mice for each group. FIG. 7E is a Kaplan-Meier plot of the overall survival. Statistical significance was determined by Log-rank (Mantel-Cox) test.

[1] = test system: iTreg induction (CD4+FoxP3+ cells); test: iTreg induction from CD4+FoxP3- cells with TGF-β (flow cytometry); format: cell-based; conditions: 72 hrs, frequency of CD4+FoxP3+ cells
Procedure: (§3) FACS-sorted CD4+FoxP3− cells were plated on anti-CD3-coated plates with soluble IL2 and ant-CD28 with TGF-β (induction) Cell were induced for iTregs with JJ64-B (FIG. 6A) without inhibitor (Induction-IND)) or for 72 hrs. Cells were harvested and the frequency of CD4+FoxP3+ cells was measured by flow cytometry.
as §3, with “JJ64-C (JJ64 modified drug C or Formula 18) or” for “JJ64-B (FIG. 6A)”
as §3, with “JJ64-D (JJ64 modified drug D or FIG. 9A) or” for “JJ64-B (FIG. 6A)”

Akt3 = target: T1, Akt3 (Mus musculus, UniProt Q9WUA6); test: Immunoblot of pAkt3 in activated nTregs; format: cell-based; conditions: 72 hrs
T1 construct: nTreg cell lysates prepared on day 3 (72 hrs) of treatment were separated by SDS-PAGE and immunoblotted; endogenous in cells; host or cells: primary mouse nTregs (C57BL/6J foxp3-GFP)
T1 sequence (Q9WUA6 whole entry): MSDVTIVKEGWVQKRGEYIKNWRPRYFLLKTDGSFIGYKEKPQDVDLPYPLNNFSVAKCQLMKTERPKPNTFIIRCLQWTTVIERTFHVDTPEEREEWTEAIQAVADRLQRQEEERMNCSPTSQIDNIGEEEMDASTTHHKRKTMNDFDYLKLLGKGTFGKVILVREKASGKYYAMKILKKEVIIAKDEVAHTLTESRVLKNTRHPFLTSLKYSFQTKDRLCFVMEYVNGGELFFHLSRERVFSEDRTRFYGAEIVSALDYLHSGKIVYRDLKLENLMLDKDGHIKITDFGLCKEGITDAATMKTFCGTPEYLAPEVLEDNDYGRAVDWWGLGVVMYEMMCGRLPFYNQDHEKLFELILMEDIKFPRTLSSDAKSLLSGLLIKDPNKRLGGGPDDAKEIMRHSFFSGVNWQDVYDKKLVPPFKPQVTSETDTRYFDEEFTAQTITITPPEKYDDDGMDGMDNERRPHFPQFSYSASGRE
Procedure: (§4) FACS-sorted natural regulatory T cells (nTregs), from WT C57BL/6J (foxp3-GFP) mice were plated on anti-CD3-coated plates and cultured in activation media (IL2 and anti-CD28) without inhibitors (Stimulated) and with different concentrations of inhibitor 4-[(6-nitroquinolin-4-yl)amino]-N-[4-(pyridin-4-ylamino)phenyl]benzamide (also referred to as JJ64-E) for 72 hrs. For negative control (Non-stimulated-NS) cells were left in media containing IL-2 for 72 hrs. nTreg cell lysates prepared on day 3 (72 hrs) of treatment were separated by SDS-PAGE and immunoblotted with specific antibodies (pAkt1) or pAkt3; actin was used as loading control.

Akt1 = target: T2, Akt1 (Mus musculus, UniProt P31750); test: Immunoblot of pAkt1 in activated nTregs; format: cell-based; conditions: 72 hrs
T2 construct: endogenous in cells; host or cells: primary mouse nTregs (C57BL/6J foxp3-GFP)
T2 sequence (P31750 whole entry): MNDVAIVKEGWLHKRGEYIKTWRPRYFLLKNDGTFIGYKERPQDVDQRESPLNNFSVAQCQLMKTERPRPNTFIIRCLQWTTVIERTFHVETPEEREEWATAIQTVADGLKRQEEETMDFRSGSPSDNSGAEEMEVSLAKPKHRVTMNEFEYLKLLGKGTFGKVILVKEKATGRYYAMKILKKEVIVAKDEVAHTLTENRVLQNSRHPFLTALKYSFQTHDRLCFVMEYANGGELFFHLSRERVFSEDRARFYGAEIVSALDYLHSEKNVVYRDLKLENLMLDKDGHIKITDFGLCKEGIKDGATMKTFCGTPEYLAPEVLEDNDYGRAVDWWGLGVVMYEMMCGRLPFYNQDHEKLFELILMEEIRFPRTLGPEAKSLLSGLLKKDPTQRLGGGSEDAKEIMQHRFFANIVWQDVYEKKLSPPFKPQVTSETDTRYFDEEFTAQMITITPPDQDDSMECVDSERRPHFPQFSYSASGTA
Procedure: as §4

nTregs = test: Proliferation (VCT, flow cytometry) of activated nTregs; format: cell-based, mouse; conditions: 72 hrs, anti-CD3, IL2 and anti-CD28
Procedure: (§5) FACS-sorted nTregs, CD4+ and CD8+ T cells from C57BL/6J(foxp3-GFP) were plated on anti-CD3-coated plates and cultured in activation media (IL2 and anti-CD28) without inhibitors (Stimulated) and with inhibitors (JJ64-E) for 72 hrs. For negative control (Non-stimulated-NS) cells were left in media containing IL-2 for 72 hrs. After 72 hrs Proliferation (level of VCT) in live gated cells was measured by flow cytometry.

CD4+ and CD8+ T cells = test: Proliferation (VCT, flow cytometry) of activated CD4+ and CD8+ T cells; format: cell-based, mouse; conditions: 72 hrs, anti-CD3, IL2 and anti-CD28
Procedure: as §5

Tregs (CD4+Foxp3+) = test: TC-1 tumor model: percentage of Tregs by flow cytometry; format: in vivo, mouse; conditions: 5 mg/kg or 10 mg/kg i.p. every day from day 10, analysed day 15
Procedure: (§6) WT C57BL/6J mice (n=3/group) were injected s.c. in the right flank with 7×10^4 TC-1 cells. Mice from appropriate groups were treated with either 5 mg/kg or 10 mg/kg of JJ64-E injected (i.p.) every day starting on day 10 after tumor implantation throughout the experiment. All groups were euthanized on day 15 of TC-1 implantation. The percentage of Tregs (CD4+Foxp3+) was analyzed by flow cytometry.
as §2

[2] = test system: CD8 and other (FoxP3neg) CD4 T cells; test: TC-1 tumor model: percentage of CD4 and CD8 T cells by flow cytometry; format: in vivo, mouse; conditions: 5 mg/kg or 10 mg/kg i.p. every day from day 10, analysed day 15
Procedure: as §6, with “C57BL/6 4-6 weeks old female” for “C57BL/6J”, “(n=5/group)” for “(n=3/group)”, “everyday” for “every day”, “CD4 and CD8 were” for “Tregs (CD4+Foxp3+) was”, “analyzed in splenic CD4+ cells” for “analyzed”

[3] = JJ64-C i.p. every other day from day 6
[4] = JJ64-E i.p. every day from day 6

With `O=C(Nc1cccc(Nc2ccncc2)c1)c1cccc(Nc2ccnc3ccc(F)cc23)c1` [Compound 18] the TC-1 tumor growth (TC-1 tumor; [3]) was “inhibits”, the “survival of TC-1 tumor mice” value (TC-1 tumor; [3]) was “prolongs” and the iTreg induction [1] was “inhibits”.

For `O=C(Nc1ccc(Nc2ccncc2)cc1)c1ccc(Nc2ccnc3ccc([N+](=O)[O-])cc23)cc1` [Compound 1, 4-[(6-nitroquinolin-4-yl)amino]-N-[4-(pyridin-4-ylamino)phenyl]benzamide], the “Akt3 phosphorylation in Tregs” value (Akt3) was “inhibits”, the “Akt1 phosphorylation in Tregs” value (Akt1) was “not” and the Treg proliferation (nTregs) was “selectively inhibits”. The “proliferation of CD8 and other CD4 T cells” value (CD4+ and CD8+ T cells) was “sparing”, the “Tregs in vivo in TC-1 tumor model” value (Tregs (CD4+Foxp3+)) was “decreases” and the “CD8 and other (FoxP3neg) CD4 T cells in TC-1 tumor model” value [2] was “does not affect”. For the same molecule, the TC-1 tumor growth (TC-1 tumor; [4]) was “inhibits” and the “survival of TC-1 tumor mice” value (TC-1 tumor; [4]) was “prolongs”.
